The supplement of paper PMC10307832

Legend:
Test in all cases: relative viability (nuclei count vs DMSO), 5 days (fraction); higher = more cells survive
Avagacestat + Trametinib = compound: NC(=O)[C@@H](CCC(F)(F)F)N(Cc1ccc(-c2ncon2)cc1F)S(=O)(=O)c1ccc(Cl)cc1 [Avagacestat] + CC(=O)Nc1cccc(-n2c(=O)n(C3CC3)c(=O)c3c(Nc4ccc(I)cc4F)n(C)c(=O)c(C)c32)c1 [Trametinib] (partner 0.02 µM)
Summary of the method: (§1)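 Relative viability is defined as nuclei in treated wells over nuclei in vehicle wells. Duplicate plates were run and medians reported. Lung cancer cell lines in 1536-well plates were dosed by pin tool one day after seeding, with one drug or with a fixed anchor-drug dose plus five library-drug doses (not always all listed) in √10 steps, and nuclei were counted after 5 days.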

Avagacestat + Bortezomib = compound: NC(=O)[C@@H](CCC(F)(F)F)N(Cc1ccc(-c2ncon2)cc1F)S(=O)(=O)c1ccc(Cl)cc1 [Avagacestat] + CC(C)C[C@H](NC(=O)[C@H](Cc1ccccc1)NC(=O)c1cnccn1)B(O)O [Bortezomib] (partner 0.002 µM)
Summary of the method: as §1

Avagacestat + Pictilisib = compound: NC(=O)[C@@H](CCC(F)(F)F)N(Cc1ccc(-c2ncon2)cc1F)S(=O)(=O)c1ccc(Cl)cc1 [Avagacestat] + CS(=O)(=O)N1CCN(Cc2cc3nc(-c4cccc5[nH]ncc45)nc(N4CCOCC4)c3s2)CC1 [Pictilisib] (partner 1 µM)
Summary of the method: as §1

Avagacestat + Olaparib = compound: NC(=O)[C@@H](CCC(F)(F)F)N(Cc1ccc(-c2ncon2)cc1F)S(=O)(=O)c1ccc(Cl)cc1 [Avagacestat] + O=C(c1cc(Cc2n[nH]c(=O)c3ccccc23)ccc1F)N1CCN(C(=O)C2CC2)CC1 [Olaparib] (partner 8 µM)
Summary of the method: as §1

Cell Line | relative viability (Avagacestat + Trametinib; first compound 0.08 µM) | relative viability (Avagacestat + Trametinib; first compound 0.253 µM) | relative viability (Avagacestat + Trametinib; first compound 0.8 µM) | relative viability (Avagacestat + Trametinib; first compound 2.53 µM) | relative viability (Avagacestat + Trametinib; first compound 8 µM) | relative viability (Avagacestat + Bortezomib; first compound 0.08 µM) | relative viability (Avagacestat + Bortezomib; first compound 0.253 µM) | relative viability (Avagacestat + Bortezomib; first compound 0.8 µM) | relative viability (Avagacestat + Bortezomib; first compound 2.53 µM) | relative viability (Avagacestat + Bortezomib; first compound 8 µM) | relative viability (Avagacestat + Pictilisib; first compound 0.08 µM) | relative viability (Avagacestat + Pictilisib; first compound 0.253 µM) | relative viability (Avagacestat + Pictilisib; first compound 0.8 µM) | relative viability (Avagacestat + Pictilisib; first compound 2.53 µM) | relative viability (Avagacestat + Pictilisib; first compound 8 µM) | relative viability (Avagacestat + Olaparib; first compound 0.08 µM) | relative viability (Avagacestat + Olaparib; first compound 0.253 µM) | relative viability (Avagacestat + Olaparib; first compound 0.8 µM) | relative viability (Avagacestat + Olaparib; first compound 2.53 µM) | relative viability (Avagacestat + Olaparib; first compound 8 µM)
LCLC-97TM1 | 0.241 | 0.251 | 0.266 | 0.174 | 0.22 | 0.98 | 0.625 | 1.38 | 0.786 | 0.482 | 0.184 | 0.138 | 0.139 | 0.181 | 0.145 | 0.533 | 0.463 | 0.555 | 0.309 | 0.307
LCLC-103H | 0.721 | 0.726 | 0.772 | 0.567 | 0.61 | 1.01 | 1.07 | 1.03 | 1.07 | 1.04 | 0.629 | 0.533 | 0.572 | 0.58 | 0.509 | 0.809 | 0.617 | 0.845 | 0.745 | 0.766
LOU-NH91 | 0.877 | 0.801 | 0.839 | 0.765 | 0.765 | 0.541 | 0.509 | 0.51 | 0.478 | 0.485 | 0.491 | 0.475 | 0.559 | 0.515 | 0.498 | 0.964 | 0.983 | 0.966 | 0.914 | 0.926
LU99A | 0.515 | 0.485 | 0.555 | 0.485 | 0.534 | 1.28 | 1.13 | 0.938 | 1.1 | 1.19 | 0.282 | 0.325 | 0.341 | 0.277 | 0.307 | 0.254 | 0.259 | 0.269 | 0.265 | 0.243
LXF-289 | 0.725 | 0.656 | 0.767 | 0.659 | 0.636 | 1.04 | 1.1 | 0.972 | 0.99 | 0.911 | 0.786 | 0.857 | 0.781 | 0.753 | 0.66 | 1.41 | 1.41 | 1.15 | 1.08 | 1.04
NCI-H23 | 0.43 | 0.261 | 0.392 | 0.414 | 0.4 | 1.19 | 1.42 | 1.12 | 1 | 0.822 | 0.523 | 0.453 | 0.472 | 0.475 | 0.555 | 0.302 | 0.316 | 0.315 | 0.335 | 0.296
NCI-H322M | 0.48 | 0.457 | 0.343 | 0.465 | 0.443 | 1.27 | 1.23 | 1.4 | 1.05 | 1.17 | 0.503 | 0.487 | 0.478 | 0.441 | 0.415 | 0.827 | 0.774 | 0.783 | 0.685 | 0.668
NCI-H441 | 0.52 | 0.462 | 0.449 | 0.515 | 0.411 | 0.66 | 0.925 | 0.531 | 0.485 | 0.248 | 0.54 | 0.515 | 0.496 | 0.442 | 0.415 | 0.679 | 0.592 | 0.656 | 0.803 | 0.613
NCI-H460 | 0.223 | 0.143 | 0.13 | 0.112 | 0.1 |  |  | 1.36 | 1.18 | 1.15 | 0.425 | 0.361 | 0.454 | 0.441 | 0.365 | 0.549 | 0.565 | 0.532 | 0.385 | 0.36
NCI-H520 | 0.814 | 0.792 | 0.611 | 0.497 | 0.616 | 0.728 | 0.555 | 0.679 | 0.48 | 0.334 | 0.302 | 0.291 | 0.274 | 0.229 | 0.205 | 0.337 | 0.367 | 0.335 | 0.338 | 0.251
NCI-H596 | 0.741 | 0.783 | 0.794 | 0.817 | 0.7 | 0.956 | 1.13 | 1.13 | 1.14 | 0.823 | 0.414 | 0.43 | 0.395 | 0.354 | 0.374 | 0.741 | 0.62 | 0.804 | 0.613 | 0.573
NCI-H647 | 0.475 | 0.502 | 0.463 | 0.396 | 0.384 | 1.66 | 1.15 | 1.14 | 1.06 | 0.922 | 0.487 | 0.504 | 0.459 | 0.41 | 0.372 | 0.766 | 0.663 | 0.626 | 0.508 | 0.366
NCI-H650 | 1.02 | 1.06 | 0.988 | 1 | 1.06 | 1.08 | 0.948 | 1.16 | 1.03 | 0.735 | 0.768 | 0.989 | 1.03 | 1.07 | 0.82 | 0.399 | 0.524 | 0.403 | 0.427 | 0.412
NCI-H661 | 0.589 | 0.632 | 0.604 | 0.548 | 0.521 | 0.919 | 1.06 | 0.774 |  | 0.693 | 0.435 | 0.38 | 0.487 |  | 0.471 | 0.795 | 0.918 | 0.771 | 0.774 | 0.725
NCI-H727 | 0.443 | 0.452 | 0.387 | 0.434 | 0.499 | 0.956 | 0.927 | 1.04 | 0.981 | 0.828 | 0.537 | 0.356 | 0.512 | 0.434 | 0.603 | 0.735 | 0.875 | 0.698 | 0.745 | 0.788
